Data on 17 molecules can be found in patent US8952192B2, “Phosphorylated and branched dihydroxy-pentane-dione (DPD) analogs as quorum sensing inhibitors in bacteria” (University of Maryland, College Park, priority 2011, dated 2015).

Read-outs that look alike come from different tables or passages of the source.

The subject of one experiment is V. harveyi. Put plainly: DPD analogs and representative bacterial species affected (Table 1). Also on record: key: x: DPD Analogs and representative bacterial species affected. The format is cell-based.
In another experiment the test system is E. coli. Described as above. The format is cell-based. Also on record: key: x: DPD Analogs and representative bacterial species affected.
For experiment [1], the system named is lsr expression in E. coli (lsr-lacZ reporter strains). Put plainly: QS response (lsr expression): AI-2 dependent β-galactosidase production, Miller assay. In kind it is cell-based, Escherichia coli. The following applies: for inhibition of AI-2-mediated lsr expression (β-galactosidase), in words: E. coli LW7 pLW11 (luxS−), 20 μM AI-2 (DPD) + 20 μM analog; for effect on native lsr expression (QS response): E. coli ZK126 pLW11 (luxS+), cells produce their own AI-2; for IC50: Escherichia coli. Here is the method:
(§1) The panel of C1-alkyl analogs was screened to identify QS modulators in the enteric bacteria E. coli and S. typhimurium. Transcription of the QS associated lsr operon, by using lsr-lacZ reporter strains (Table 2) which produce β-galactosidase in response to added AI-2 was monitored. In order to first establish if the analogs were agonists or antagonists in the QS circuit, the analogs were incubated with E. coli LW7 pLW11 and S. typhimurium MET715 (FIG. 19a-b) both of which are luxS^−. None of the analogs, except ethyl-DPD behaved as agonists for lsr expression. Previous studies investigating AI-2 antagonism in P. aeruginosa or in S. typhimurium were carried out using chemically synthesized AI-2 added to luxS^− cells. […] The same trends were obtained by adding a 1:1 ratio of enzymatically synthesized AI-2 and DPD analogs to the luxS^− strains E. coli LW7 pLW11 and S. typhimurium MET715 (FIG. 11a-b). None of the tested DPD analogs were bacteriocidal or bacteriostatic as the OD600 values of E. coli ZK126 pLW11 and S. typhimurium MET708 in the presence and absence of the analogs were similar (FIG. 10). Though the QS circuitry of the enteric organisms, E. coli and S. typhimurium are homologous they respond differently to the DPD analogs. The E. coli QS circuitry is susceptible to being silenced by a variety of DPD analogs of different shapes and sizes whereas in S. typhimurium, only a handful of DPD analogs could antagonize the action of AI-2. […] Isobutyl-DPD emerged as an effective and non-species-specific quencher; causing significant lsr expression knockdowns in both E. coli and S. typhimurium.
(§2) The QS response indicated by lsr gene expression was analyzed in pure culture studies by culturing E. coli LW7 pLW11, E. coli ZK126 pLW11 and S. typhimurium MET708, S. typhimurium MET715 overnight in LB medium supplemented with appropriate antibiotics as stated previously. These cells were then diluted into fresh LB medium (with antibiotics) and grown to an OD600 of 0.8-1.0 at 30° C., 250 rpm. Cells were then collected by centrifugation at 10,000×g for 10 minutes, and resuspended in 10 mM phosphate buffer. AI-2 (20 μM) and the respective analog (20 μM) were added to the E. coli or S. typhimurium suspension for 2 hours at 37° C. AI-2 dependent β-galactosidase production was quantified by the Miller assay.
(§3) The QS response indicated by lsr gene expression was analyzed in pure culture studies by culturing E. coli LW7 pLW11 and S. typhimurium MET715 overnight at 30° C. in LB medium supplemented with appropriate antibiotics as stated previously. These cells were then diluted into fresh LB medium (with antibiotics) and grown to an OD600 of 0.4-0.8 at 37° C., 250 rpm. Cells were then collected by centrifugation at 10,000×g for 10 min and resuspended in 10 mM phosphate buffer. AI-2 (20 μM) and the respective analog (20 μM) were added to the E. coli or S. typhimurium suspension for 2 h at 37° C. AI-2 dependent β-galactosidase production was quantified by the Miller assay.
(§4) The QS response indicated by lsr gene expression was analyzed in pure culture studies by culturing E. coli LW7 pLW11, E. coli ZK126 pLW11 and S. typhimurium MET708, S. typhimurium MET715 overnight in LB medium individually supplemented with appropriate antibiotics, as specified above. These cells were diluted into fresh LB medium (with antibiotics) and grown to an OD600 of 0.8-1.0 at 30° C., 250 rpm. Cells were collected by centrifugation at 10,000×g for 10 minutes, and resuspended in 10 mM phosphate buffer. AI-2 (20 μM) and the respective analog (20 μM) were added to the E. coli or S. typhimurium suspension for 2 hours at 37° C. AI-2 dependent β-galactosidase production was quantified by the Miller assay.

The subject of experiment [2] is pre-formed P. aeruginosa biofilms (PAO1). Put plainly: Effects on pre-formed P. aeruginosa biofilms (microfluidic flow cell, COMSTAT, optical density). In kind it is cell-based. Conditions: gentamicin alone. The protocol:
(§5) The E. coli biofilms were formed using the strain K-12 MG1655 ATCC(47076). P. aeruginosa biofilms were formed using wild type strain PAO1. For both strains, overnight cultures were diluted to an OD600 of 0.25, introduced into the microfluidic channel, and incubated with no flow at 37° C. for 2 h. LB (Luria Bertani) growth medium was then continuously flowed into the device at a rate of 10 μL/hr. As needed, this medium was supplemented with various concentrations of analog or antibiotic at specified times. In studies of biofilm inhibition, after 2 hours of cell incubation, the analog diluted in LB medium is flown into the microfluidic channel for 48 hours at 10 μL/hr. In studies of effects on pre-formed biofilms, LB is introduced over the cells at 10 μL/hr for a period of 36 to 48 hours to yield stable biofilms. Then, the analog or analog-antibiotic combination was introduced for an additional 36 to 48 hours.
(§6) Biofilms were stained in situ for microscopy. They were first treated with a Live/Dead bacterial labeling kit (Invitrogen #L7012) in which two labeling components were mixed in a 1:1 ratio to a final volume of 10 μL. The dye was introduced into the channel at 10 μL/hr, the same flow rate as during biofilm growth. This treatment was then followed by 10 μL/hr of a 100 μg/mL calcofluor (Fluorescence Brightener 28, Sigma #F3543) solution for labeling polysaccharides contained in the biofilm matrix. The dyes are fixed by flowing in 3% paraformaldehyde at the same flow rate.
(§7) Labeled samples are imaged using a confocal microscope (Zeiss LSM710). For unpatterned coverslips, Z-stacks were obtained at 7 points in each microfluidic channel, each stack was comprised of 150 slices. For patterned coverslips used while measuring the optical density of the biofilms, two stacks were obtained in each channel (i.e. one at each pinhole). The image stacks were analyzed using COMSTAT, which provides morphological characteristics. Average biofilm thickness and biomass were averaged over the image stacks obtained at each of these 7 data points in the microfluidic channel. Additionally, surface reconstructions of the biofilms were created using Imaris (Bitplane) to aid in visualization of the resulting structures.
(§8) The data corresponding to the change in optical density of the biofilms were obtained from the photodiodes using the standard methodologies. Data for each channel (the average of the response of the two photodiodes) was normalized with respect to the optical density at 48 hours; this method reflects that as of 48 hours, the biofilms have been grown under identical conditions although their optical density values may not be identical. Additionally, since the optical density data itself fluctuates as the biofilm grows, the data for each curve was fitted using a Churchill model (Churchill et al, 1972), represented by log N=[f1^−1+f2^−1]^−1 (1)

In experiment [3] the test system is pre-formed E. coli biofilms (K-12 MG1655). Nature of the experiment: Effects on pre-formed E. coli biofilms (microfluidic flow cell, COMSTAT, optical density). The format is cell-based. Here is the method: as §5, §6, §7, §8
For the next experiment, the target named is T1, LsrK (Escherichia coli, UniProt P77432).
T1 construct: made in house; host or cells: E. coli BL21
Put plainly: In vitro phosphorylation of analogs by LsrK (TLC, autoradiography). The format is biochemical, E. coli. Conditions: for phosphorylation by E. coli LsrK: incubation with LsrK in vitro for one hour (Example 6). The protocol:
LsrK was purified and from E. coli BL21 pET200-LsrK as described before. Phosphorylated analogs were synthesized by incubating 1 μM) LsrK with 40 μM ATP (Roche), […] of [γ-^32P] […] A 5 μL aliquot was then spotted onto a cellulose TLC plate (Selecto Scientific). The plate was developed using 0.8 M LiCl as the solvent, air dried and developed via autoradiography.
LsrK was purified from E. coli BL21 pET200-LsrK as described before. Phosphorylated analogs were synthesized by incubating (1 μM) LsrK with (40 μM) ATP (Roche), ([…]) of [P^32] […] An aliquot (2.5 μL) was then spotted onto a cellulose TLC plate (Selecto Scientific). The plate was developed using 0.8 M LiCl as the solvent, air dried and developed via autoradiography.

The test system of experiment [4] is lsr expression in S. typhimurium (lsr-lacZ reporter strains). Put plainly: QS response (lsr expression): AI-2 dependent β-galactosidase production, Miller assay. The format is cell-based, Salmonella typhimurium. Conditions: for effect on AI-2-mediated lsr expression (β-galactosidase), in words: S. typhimurium MET715 (luxS−), 20 μM AI-2 (DPD) + 20 μM analog. Here is the method:
as §1, §2, §3, §4

T1 sequence (P77432 whole entry): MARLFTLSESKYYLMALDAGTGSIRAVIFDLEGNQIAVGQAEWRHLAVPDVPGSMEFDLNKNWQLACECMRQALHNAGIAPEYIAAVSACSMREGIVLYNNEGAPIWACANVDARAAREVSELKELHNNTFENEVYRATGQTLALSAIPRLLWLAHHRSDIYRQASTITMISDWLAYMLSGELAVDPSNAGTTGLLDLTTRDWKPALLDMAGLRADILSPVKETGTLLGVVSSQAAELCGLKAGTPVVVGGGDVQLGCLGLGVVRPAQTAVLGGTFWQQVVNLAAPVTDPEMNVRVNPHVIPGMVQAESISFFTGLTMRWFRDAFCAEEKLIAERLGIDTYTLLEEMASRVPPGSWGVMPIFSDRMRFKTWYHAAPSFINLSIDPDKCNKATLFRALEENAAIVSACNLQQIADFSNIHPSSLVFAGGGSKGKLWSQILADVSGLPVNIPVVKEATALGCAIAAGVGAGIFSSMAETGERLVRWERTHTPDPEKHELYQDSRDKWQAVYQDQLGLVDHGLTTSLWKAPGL

With `CCCCCCC(=O)C(=O)[C@@H](O)CO` [Hexyl DPD], in the experiment with V. harveyi, the “bacterial species affected: V. harveyi” value was “x”. For the same molecule, the “bacterial species affected: E. coli” value in the experiment with E. coli is reported as “x”.

With `CCCCC(=O)OCC(OC(=O)CCCC)C(=O)C(=O)CC(C)C` (centres unmarked) [Compound 25, 6-methyl-3,4-dioxoheptane-1,2-diyl dipentanoate], the “inhibition of AI-2-mediated lsr expression (β-galactosidase), in words” value (“inhibition” for short) in experiment [1] was “reduced”.

Take `CC(=O)OCC(OC(C)=O)C(=O)C(=O)CC(C)C` (centres unmarked) [Compound 23, 6-methyl-3,4-dioxoheptane-1,2-diyl diacetate]: in experiment [1], the “inhibition” value is “as effective QS quenchers as the unprotected isobutyl DPD”.

For the molecule gentamicin [reference compound], in experiment [2], the biofilm reduction is reported as roughly 0%. The “course of biofilm optical density after 48 h, in words” value in experiment [2] (continuous optical density measurement) is “slowed the progress of biofilm maturation”; in experiment [3] (gentamicin alone, continuous optical density measurement), “slowed the progress of biofilm maturation”. Besides, the “drop of biofilm biomass” value in experiment [3] (gentamicin 5 μg/ml without AI-2 analog) is reported as roughly 50%. The average biofilm biomass in experiment [3] (gentamicin 5 μg/ml without AI-2 analog, LB only 8.5 μm^3/μm^2) is 3.5 μm^3/μm^2. For the same molecule, the average biofilm thickness in experiment [3] (gentamicin 5 μg/ml without AI-2 analog, LB only 12 μm) worked out at 10 μm.

Consider `O=C(C(=O)C(O)CO)c1ccc(F)cc1` (centres unmarked) [fluorophenyl, 4-fluorophenyl DPD], for which the “inhibition” value in experiment [1] was “no”.

Take `CCCCCC(=O)OCC(OC(=O)CCCCC)C(=O)C(=O)CC(C)C` (centres unmarked) [Compound 26, 6-methyl-3,4-dioxoheptane-1,2-diyl dihexanoate]: in experiment [1], the “inhibition” value was “abrogated”.

`O=C(C(=O)C1CCCCCC1)C(O)CO` (centres unmarked) [Cycloheptyl-DPD, Cycloheptyl DPD]: in experiment [1], the “inhibition” value was “nor did they affect LsrR-controlled transcription”. Besides, the “phosphorylation by E. coli LsrK” value at LsrK was “Neither Cycloheptyl-DPD nor the aromatic analogs were phosphorylated”; on LsrK (listed as cycloheptyl), “not phosphorylated”.

Turning to `CCCC(=O)OCC(OC(=O)CCC)C(=O)C(=O)CC(C)C` (centres unmarked) [Compound 24, 6-methyl-3,4-dioxoheptane-1,2-diyl dibutyrate], the “inhibition” value in experiment [1] is “as effective QS quenchers as the unprotected isobutyl DPD”.

`CC(C)(C)CC(=O)C(=O)C(O)CO` (centres unmarked) [neopentyl-DPD]: the “effect on native lsr expression (QS response)” value (“effect on native lsr expression” for short) in experiment [1] is on record as “substantial reduction”.

On to `O=C(C(=O)C1CC1)C(O)CO` (centres unmarked) [cyclopropyl-DPD], for which the “effect on native lsr expression” value in experiment [1] is reported as “neither an lsr agonist nor antagonist”. The “phosphorylation by LsrK” value at LsrK (incubation with LsrK and excess ATP for 2 hours (Example 1)) was “phosphorylated”.

Turning to `O=C(C(=O)C(O)CO)c1ccc([N+](=O)[O-])cc1` (centres unmarked) [Nitrophenyl-DPD, 4-nitrophenyl DPD], the “inhibition” value in experiment [1] is recorded as “no”. For the same molecule, the “effect on AI-2-mediated lsr expression (β-galactosidase), in words” value in experiment [4] is “increased QS response”.

On to `CCCCC(=O)OCC(OC(=O)CCCC)C(=O)C(C)=O` (centres unmarked) [Compound 21, 3,4-dioxopentane-1,2-diyl dipentanoate], for which the “induction of lsr expression (β-galactosidase)” value in experiment [4] (S. typhimurium MET715 (LuxS−), 20 μM compound, no AI-2 added) is on record as “as effective as DPD”.

For the molecule deoxy-isobutyl-DPD, in experiment [1], the “effect on native lsr expression” value was “unable to silence the lsr operon”.

What is called IC50 is the concentration that gives 50% inhibition. In the case of `O=C(C(=O)C1CCCC1)C(O)CO` (centres unmarked) [Cyclopentyl-DPD, Cyclopentyl DPD], in experiment [1] (E. coli LW7, 20 μM DPD + 20 uM analog), the “reduction in lsr promoter activity” value is given as “over 60%”. In addition, the “inhibition” value in experiment [1] is given as “inhibit lsr expression”. Besides, the IC50 in experiment [1] (Example 6, read-out: IC50 (lsr expression in E. coli)) came out at 2400 nM; in experiment [1] (concentration reducing lsr expression (β-galactosidase production) to 50% in the presence of 20 μM exogenously added synthetic DPD, read-out: IC50 of analog (nM) to inhibit QS in E. coli), 2440 nM. For the same molecule, the “bacterial species affected: E. coli” value in the experiment with E. coli is “x”. The “effect on AI-2-mediated lsr expression (β-galactosidase), in words” value in experiment [4] was “increased expression”. Further, the “phosphorylation by E. coli LsrK” value at LsrK was “significantly phosphorylated”.

Take 2-methylpropyl-DPD: the “effect on native lsr expression” value in experiment [1] is listed as “substantial reduction”.

Take `CC(=O)C(=O)C(O)CO` (centres unmarked) [AI-2, 4,5-dihydroxy-2,3-pentanedione, reference compound]: the “more LacZ present than without AI-2” value in experiment [4] (S. typhimurium MET715 (LuxS−), 20 μM AI-2 added) is “about 30%”.

Take CH2-cyclohexyl-DPD: in experiment [1], the “inhibition” value was “attenuated lsr expression in E. coli to a lesser extent”. In addition, the “phosphorylation by E. coli LsrK” value on LsrK is “weakly phosphorylated”; at LsrK (listed as CH2-cyclohexyl), “not phosphorylated”.
